By IC50 is commonly meant the concentration that inhibits the measured activity by half.

Each structure is given as a SMILES string. Read-outs that look alike come from different tables or passages of the source.

We go through three molecules from paper PMC9780857 (International Journal of Molecular Sciences, 2022).

The target of series [1] is T1, hOCT2 (Homo sapiens, UniProt O15244).
T1 sequence (O15244 1-555): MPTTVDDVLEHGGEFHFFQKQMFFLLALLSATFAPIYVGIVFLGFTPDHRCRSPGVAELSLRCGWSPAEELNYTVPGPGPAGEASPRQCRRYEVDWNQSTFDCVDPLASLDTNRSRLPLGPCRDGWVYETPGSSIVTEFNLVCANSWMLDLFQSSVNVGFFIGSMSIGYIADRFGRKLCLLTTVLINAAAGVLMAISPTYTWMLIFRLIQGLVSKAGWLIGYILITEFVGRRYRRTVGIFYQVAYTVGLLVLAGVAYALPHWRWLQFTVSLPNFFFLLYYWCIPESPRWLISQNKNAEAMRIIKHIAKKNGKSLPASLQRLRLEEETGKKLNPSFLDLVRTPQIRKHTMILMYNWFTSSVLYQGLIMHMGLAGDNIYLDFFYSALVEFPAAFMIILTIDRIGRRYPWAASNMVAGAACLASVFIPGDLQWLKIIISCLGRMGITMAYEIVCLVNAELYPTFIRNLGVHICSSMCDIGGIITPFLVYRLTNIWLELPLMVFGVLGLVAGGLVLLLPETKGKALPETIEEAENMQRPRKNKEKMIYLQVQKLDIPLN
Also on record: expressed in transfected cells; host or cells: HEK293 (stably transfected); method as in ref 39 (Vermeer et al.). Particulars: ref 39 (Vermeer et al.); cited from earlier work.

The target of the next series is T2, mOct2 (Mus musculus, UniProt O70577).
T2 sequence (O70577 1-553): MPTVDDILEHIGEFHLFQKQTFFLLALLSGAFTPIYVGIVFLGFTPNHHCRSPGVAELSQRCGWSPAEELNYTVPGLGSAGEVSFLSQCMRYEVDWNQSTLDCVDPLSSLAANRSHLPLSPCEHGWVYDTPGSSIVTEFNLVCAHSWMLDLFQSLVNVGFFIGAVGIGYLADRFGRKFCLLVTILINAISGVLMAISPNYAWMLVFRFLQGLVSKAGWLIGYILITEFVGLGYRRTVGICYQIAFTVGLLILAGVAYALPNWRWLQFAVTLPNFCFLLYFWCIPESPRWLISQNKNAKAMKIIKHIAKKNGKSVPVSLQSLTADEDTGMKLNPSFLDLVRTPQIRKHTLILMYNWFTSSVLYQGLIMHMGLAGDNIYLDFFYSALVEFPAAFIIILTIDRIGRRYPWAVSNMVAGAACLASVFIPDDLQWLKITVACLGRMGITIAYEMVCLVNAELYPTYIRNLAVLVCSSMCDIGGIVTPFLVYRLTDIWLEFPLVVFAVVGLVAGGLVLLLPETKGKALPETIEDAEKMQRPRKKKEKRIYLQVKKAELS
In words: Inhibition of mOct2-mediated 14C-metformin uptake in transfected HEK293 cells. The format is cell-based. Also on record: expressed in transfected cells; host or cells: HEK293 (stably transfected). The following applies: HEK293; for inhibition at 10 µM: read-out: Inhibitory Effects (%) mOct2 10 µM Mean; for inhibition at 100 µM: read-out: Inhibitory Effects (%) mOct2 100 µM Mean. As for the experimental part: (§1) The uptake assays were performed as previously described in 24-well plates. […] After incubation, the uptake was stopped by aspirating the reaction mixture and washing the cells three times with 0.4 mL ice-cold PBS buffer. Cells were then solubilized with 0.6 mL of 1 N NaOH, overnight. The whole content of each well (0.6 mL) was transferred to a scintillation vial (Perkin Elmer). The radio-labelled amount was determined by liquid scintillation counting.
(§2) All inhibition experiments were conducted on at least two separate days in triplicate.
(§3) For screening experiments, cis-inhibition was carried out in duplicate by measuring the uptake of the labeled probe substrate in the absence and presence of 10 µM or 100 µM of the respective pesticide or drug. […] Inhibitory effects in percent were calculated from net-uptake. […]

Series [2] addresses T1, hOCT2. Description: Inhibition of hOCT2-mediated 14C-metformin uptake in transfected HEK293 cells. It counts as cell-based. Also on record: expressed in transfected cells; host or cells: HEK293 (stably transfected). Particulars: HEK293; for inhibition at 10 µM: read-out: Inhibitory Effects (%) hOCT2 10 µM Mean; for inhibition at 100 µM: read-out: Inhibitory Effects (%) hOCT2 100 µM Mean. As for the experimental part:
as §1, §2, §3

Series [3] addresses T1, hOCT2. Particulars: read-out: IC50, hOCT2-mediated metformin uptake; cited from earlier work.
For series [4], the target named is T1, hOCT2. Also on record: expressed in transfected cells; host or cells: HEK293 (stably transfected). Particulars: read-out: IC50, hOCT2-mediated MPP uptake; cited from earlier work.
Another series concerns OCT2. Also noted: method as in PMID 19833842. The following applies: OCT2-overexpressing HEK293 cells; read-out: IC50, YM155 uptake; cited from earlier work.
Setting [5] is: HEK293, 10 µM test compound, 1 µM [14C]metformin, 2 min, negative = stimulation.
[6] abbreviates: HEK293, 100 µM test compound, 1 µM [14C]metformin, 2 min, negative = stimulation.
Setting [7] is: 10 µM test compound, 1 µM [14C]metformin, 2 min, negative = stimulation.

For `CC(=O)N1CCN(c2ccc(OCC3COC(Cn4ccnc4)(c4ccc(Cl)cc4Cl)O3)cc2)CC1` (stereo not drawn) [Ketoconazole], the 50% inhibitory concentration (IC50) at hOCT2 [1] is 0.89 µM. Moreover, the inhibition at 10 µM at mOct2 was determined as 49%; on hOCT2 [2] (setting [5]), 31%. The inhibition at 100 µM on mOct2 and at hOCT2 [2] (setting [6]) was 87% in each case.

For the molecule `Clc1cccc(Cl)c1N=C1NCCN1` [Clonidine], the figures for the concentration for half-maximal inhibition (IC50) at hOCT2 [3] and on hOCT2 [4] were 0.68 µM and 6 µM, respectively. In addition, on mOct2 (setting [7]), the “Inhibitory Effects (%) mOct2 10 µM Mean” value came to 54%. The inhibition at 10 µM came out at 46% at mOct2 (setting [5]) and 60% at hOCT2 [2] (setting [5]). For the same molecule, the inhibition at 100 µM was 89% at mOct2 (setting [6]) and 76% at hOCT2 [2] (setting [6]). Also, the “Inhibitory Effects (%) hOCT2 10 µM Mean” value at hOCT2 [2] (setting [7]) was 40%.

As to `CCN(CC)CCNC(=O)c1ccc(N)cc1` [Procainamid], the IC50 in the series with OCT2 was 92 µM. Besides, the inhibition at 10 µM at mOct2 (setting [5]) is -16%; at hOCT2 [2], -20%. For the same molecule, the inhibition at 100 µM on mOct2 (setting [6]) was -30%; on hOCT2 [2], -44%.
